Patent US20250204515A1, “Heparanase Inhibition for Graft Protection” (University of Pittsburgh - Of the Commonwealth System of …, priority 2022, published 2025)
Entries after “also recorded” stand apart in the source; their conditions may differ.

Experiments:
MMP-2 = assay: Gelatin zymography of EVLP perfusate, donor-pretreated lungs; format: in vivo, rat; settings: donor pre-treatment, vs control
Method: Gelatin zymography. Gelatin zymography was performed to measure secreted MMP-2 and MMP-9 activity in EVLP perfusate and to measure endogenous MMP-2 and 9 activity in lung tissue before transplantation. Briefly, lung tissue before transplant was homogenized in cold PBS. Perfusate samples (20 μl) or tissue lysates were mixed with 2× non-reducing SDS sample buffer were loaded onto a 10% polyacrylamide gel containing 0.1% SDS and 0.1% gelatin. After electrophoresis to separate the proteins, the gel was washed in renaturing buffer (Novex Invitrogen) at room temperature, and then incubated in developing buffer (Novex Invitrogen) at 37° C. overnight (˜16-18 h). The next day, the gel was stained with Coomassie Brilliant Blue R-250 (Bio-Rad) and imaged (ChemiDoc, Bio-Rad). Enzyme activity, visualized as clear bands against the dark blue background, was quantified using Image-J (NIH).

IL-6, IL-1β, MMP-9 mRNA = assay: Real-time RT-PCR in lung grafts 2 h after transplantation; format: in vivo, rat; settings: for IL-1β mRNA expression / IL-6 mRNA expression: graft 2 h after reperfusion, vs control lung grafts; for MMP-9 mRNA expression: graft 2 h after transplantation, vs control
Method: Real-time RT PCR. Lung tissues were collected after EVLP or 2 h after transplantation. Total RNA was extracted from the graft using TRIzol reagent (Life Technologies, Inc. Grand Island, NY) according to the manufacturer's instructions and purified by ethanol precipitation. RNA content was measured using 260/280 nm UV spectrophotometry.

[1] = tested on: endothelial glycocalyx (eGC); assay: Gross inspection and TEM glycocalyx imaging of rat lungs after 1 h warm ischemia; format: in vivo; settings: for gross visual appearance of excised lungs: heparin 300 IU or NAH 300 μg i.v. before 1 h ischemia; for eGC ultrastructure in lung vasculature (TEM): heparin 300 IU or NAH 300 μg i.v. before 1 h warm ischemia, vs control
Method: (§1) Models of lungs with damaged or preserved eGC and rat orthotopic left lung transplantation. Rats were sedated with 4% isoflurane via inhalation for tracheostomy and then placed on a ventilator. They received 5% isoflurane with 100% O2 via inhalation through the ventilator for 15 min to induce a deep state of anesthesia that causes arrest of spontaneous breathing. The rats were disconnected from the ventilator 5 min after intravenous administration of heparin (300 IU), a heparin derivative without anti-coagulant properties (300 μg; N-acetyl heparin (NAH) (Millipore Sigma, Burlington, MA)), or saline (300 μl, control) through the jugular vein. Cardiac activity and blood oxygen saturation were monitored after disconnection from ventilator until cardiac arrest. One hour after induction of ischemia, a median thoracotomy was performed, and blood was flushed from the lungs with cold, low potassium dextran solution (PERFADEX; XVIVO Perfusion AB) through the pulmonary artery. Then, the heart-lung bloc was isolated and stored in cold PERFADEX for 6 h before transplantation.
TEM for glycocalyx imaging. To prepare the tissue for transmission electron microscopy imaging, blood was flushed from rat lungs with PBS via the pulmonary artery after 1 h of warm ischemia, then the lungs were perfused with a solution containing 2% glutaraldehyde, 2% sucrose, 0.1 M sodium cacodylate buffer (pH 7.3, Sigma), and 2% lanthanum nitrate (Sigma). Excised lung tissues were incubated with the same solution for 2 h at 4° C. for fixation. The fixed tissues were immersed in a 2% sucrose, 0.1 M sodium cacodylate buffer (pH 7.3) solution with 2% lanthanum nitrate overnight at 4° C. to stain the glycocalyx, then washed twice with an alkaline solution (0.03 mol/l NaOH) containing 2% sucrose. Following fixation and glycocalyx staining with lanthanum nitrate, the specimens were rinsed in PBS, post-fixed in 1% osmium tetroxide (Electron Microscopy Sciences, Hatfield, PA), rinsed in PBS a second time, dehydrated through a graded series of ethanol and propylene oxide (Electron Microscopy Sciences), and embedded using a Poly/Bed 812 (Luft formulations) Embedding Kit (Polysciences, Warrington, PA). Sections were cut on a Leica-Reichart Ultracut ultra-microtome (Leica Microsystems, Buffalo Grove, IL). Semi-thin (300 nm) sections were stained with 0.5% toluidine blue in 1% sodium borate (toluidine blue O and sodium borate, Fisher Scientific, Pittsburgh, PA) and examined under the light microscope. Ultrathin sections (65 nm) were stained with uranyl acetate and Reynold's lead citrate and examined on a JEOL 1400 transmission electron microscope (JEOL Peabody, MA) with a side-mount AMT 2 k digital camera (Advanced Microscopy Techniques, Danvers, MA).

rat lung grafts = assay: Rat orthotopic left lung transplantation of donor-pretreated lungs: graft function, edema, histology, cell infiltration; format: in vivo; settings: for T-cell (CD3+) infiltration / macrophage (CD68+) infiltration / polymorphonuclear neutrophil (PMN) infiltration: 2 h after reperfusion; for T-cell (CD3+) infiltration / macrophage (CD68+) infiltration / wet-to-dry (W/D) ratio / polymorphonuclear neutrophil (PMN) infiltration: vs control; for congestion, swollen alveolar walls, secretions in the airways (H&E) / wet-to-dry (W/D) ratio / PaO2/FiO2 (P/F) ratio: 2 h after transplantation, donor pre-treatment; for PaO2/FiO2 (P/F) ratio: vs control lung grafts; for polymorphonuclear neutrophil (PMN) infiltration: naphthol staining
Text: Study design. To investigate the stability of eGC in lung grafts and its potential influence on graft function and quality after reperfusion, we established rat models with damaged or preserved lung eGC and performed orthotopic, single, left-lung transplantation or EVLP using the lungs from these rats. Animals were randomly assigned 4 different groups; (1) native lungs (normal control), (2) Control: lungs with eGC damage, (3) Heparin: lungs with eGC preserved by heparin, and (4) NAH: lungs with eGC preserved by NAH. Shedding of the eGC was induced in vivo by donor systemic ischemia. After 1 h of ischemia in vivo, lungs were procured in a standardized fashion for lung transplantation then either directly transplanted or subjected to EVLP and assessed biologically. Native lungs were not subjected to any insult.
as §1
Orthotopic single-lung transplantation of the left lung was performed using the cuff method. Two hours after reperfusion, the naive lung was clamped, 100% 02 was administered for 5 min through a ventilator, and the recipient's blood was sampled from the graft pulmonary vein for blood gas analysis.
Wet-to-dry (W/D) weight ratio. The weight of the lung tissues was measured immediately after collection (wet weight). The lung tissue was then placed into a 60° C. oven to dry for 72 h. Tissues were weighed to deter-mine the dry weight, and the wet-to-dry ratio was calculated.
Tissue staining and histopathological analysis. Formalin-fixed, paraffin-embedded lung tissues collected 2 h after transplantation were sectioned to 4-μm thickness and stained with hematoxylin and eosin. The sections were also stained for immunofluorescent imaging using primary antibodies for CD3 (Invitrogen), CD68 (Invitrogen), or syndecan-1 (Santa Cruz), and Hoechst 33342 dye for nuclear staining. Primary antibody was detected by secondarily Cy5-conjugated goat anti-rabbit IgG (Invitrogen) and Cy3-conjugated goat anti-mouse IgG (Millipore Sigma).
Polymorphonuclear neutrophils (PMNs) were stained using a naphthol AS-D chloroacetate esterase staining kit (Millipore Sigma) and identified by nuclear morphology staining in bright red. Stained slides were scanned with a whole-slide image scanner (Axio Scan.Z1; Carl Zeiss) and analyzed with digital image processing software (ZEN lite blue edition; Carl Zeiss). Stained cells were counted by two investigators with the identity of the samples masked.

## N-acetyl heparin [NAH]
MMP-2
  MMP-2 activity in EVLP perfusate: significantly less
IL-6, IL-1β, MMP-9 mRNA
  IL-1β mRNA expression: significantly lower
  IL-6 mRNA expression: significantly lower
  MMP-9 mRNA expression: significantly lower
[1]
  gross visual appearance of excised lungs: no significant changes in appearance
  eGC ultrastructure in lung vasculature (TEM): intact and adherent to the cell surface
Rat lung grafts
  T-cell (CD3+) infiltration: significantly reduced
  macrophage (CD68+) infiltration: significantly reduced
  congestion, swollen alveolar walls, secretions in the airways (H&E): not observed
  wet-to-dry (W/D) ratio: lower
  PaO2/FiO2 (P/F) ratio: significantly higher
  polymorphonuclear neutrophil (PMN) infiltration: significantly reduced

## heparin
MMP-2
  MMP-2 activity in EVLP perfusate: significantly less
IL-6, IL-1β, MMP-9 mRNA
  IL-1β mRNA expression: significantly lower
  IL-6 mRNA expression: significantly lower
  MMP-9 mRNA expression: significantly lower
[1]
  gross visual appearance of excised lungs: no significant changes in appearance
  eGC ultrastructure in lung vasculature (TEM): preserved; also recorded: intact and adherent to the cell surface
Rat lung grafts
  T-cell (CD3+) infiltration: significantly reduced
  macrophage (CD68+) infiltration: significantly reduced
  congestion, swollen alveolar walls, secretions in the airways (H&E): not observed
  wet-to-dry (W/D) ratio: lower
  PaO2/FiO2 (P/F) ratio: significantly higher
  polymorphonuclear neutrophil (PMN) infiltration: significantly reduced
